Here are results for 2 compounds from patent publication US8952024B2, “Herbicidal pyrimidone derivatives” (E I du Pont de Nemours and Company, priority 2009, dated 2015).

What all share (assay type): in vivo
The test system of assay [1] is goosegrass (Eleusine indica). Put plainly: Test B pre-/postemergence plant response. The settings on record: Preemergence, 62 g ai/ha; scale 0 to 100 (0 no effect, 100 complete control).
For assay [2], the system named is winter barley (Hordeum vulgare). Put plainly: Test B postemergence plant response. The settings on record: Postemergence; for Barley plant response rating: 250 g ai/ha, scale 0 to 100. Summed up: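 Plants at the 1- to 4-leaf stage (2 to 18 cm tall), grown in pots of peat moss/vermiculite medium with wetting agent and starter nutrients, received postemergence applications of test chemicals. After 13 to 15 days in a greenhouse, injury was rated visually against untreated controls on a 0 (no effect) to 100 (complete control) scale.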

Assay [3] relates to sunflower (common oilseed sunflower, Helianthus annuus). Put plainly: Test B pre-/postemergence plant response. Conditions: Preemergence; for Sunflower plant response rating: 125 g ai/ha. An outline of the steps: (§1)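 Steps: sow seed in loam–sand soil and spray preemergence, or grow plants in peat-based medium to 1–4 leaves (2–18 cm) and spray postemergence; formulation is non-phytotoxic solvent plus surfactant; hold in greenhouse 13–15 days; score visually vs controls, 0 = no effect, 100 = complete control.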

Assay [4] relates to galium (catchweed bedstraw, Galium aparine). In words: Test B pre-/postemergence plant response. Conditions: Preemergence; for Galium plant response rating: 125 g ai/ha. Summed up:
as §1

In assay [5] the test system is nightshade (eastern black nightshade, Solanum ptycanthum). Put plainly: Test B pre-/postemergence plant response. Conditions: Preemergence; for Nightshade plant response rating: 125 g ai/ha. Summed up:
as §1

Where [6] appears, read: 31 g ai/ha, scale 0 to 100 (0 no effect, 100 complete control).
The mark [7] stands for this setting: 62 g ai/ha, scale 0 (no effect) to 100 (complete control), 13 to 15 days.
Where [8] appears, read: 62 g ai/ha, scale 0 to 100 (0 no effect, 100 complete control).

Consider `Cc1cc(C)cc(-n2c(-c3ccccc3)ncc(C(=O)C3=C(O)CCCC3=O)c2=O)c1` [Compound 33], for which the “Plant response rating, Goosegrass” value in assay [1] was determined as 85. Also, the “Plant response rating, Barley” value was found to be 0 in assay [2] (setting [6]); 0 in assay [2] (setting [7]); 0 in assay [2] (125 g ai/ha, visual rating after 13 to 15 days, scale 0 (no effect) to 100 (complete control)). The “Barley plant response rating” value in assay [2] is listed as 0. The “Plant response rating, Sunflower” value in assay [3] (250 g ai/ha, 0 to 100 scale) worked out at 90; in assay [3] (setting [6]), 65; in assay [3] (setting [8]), 75. Further, the “Sunflower plant response rating” value in assay [3] (0 to 100 scale) is reported as 75. Further, the “Plant response rating, Galium” value is 90 in assay [4] (250 g ai/ha, 0 to 100 scale); 0 in assay [4] (setting [6]); 10 in assay [4] (setting [8]). The “Galium plant response rating” value in assay [4] (0 to 100 scale) was determined as 50. Also, the “Plant response rating, Nightshade” value turned out to be 100 in assay [5] (250 g ai/ha, 0 to 100 scale); 80 in assay [5] (setting [6]); 100 in assay [5] (setting [8]). Further, in assay [5] (0 to 100 scale), the “Nightshade plant response rating” value is reported as 100.

On to “3-cyclohexyl-5-[(2-hydroxy-6-oxo-1-cyclohexen-1-yl)carbonyl]-2-phenyl-4(3H)-pyrimidinone [Compound 128]”, for which the “Plant response rating, Goosegrass” value in assay [1] stood at 95. Besides, the “Plant response rating, Barley” value in assay [2] (setting [6]) was 0; in assay [2] (setting [7]), 10; in assay [2] (125 g ai/ha, scale 0 to 100 (0 no effect, 100 complete control), 13 to 15 days) it was 10. Moreover, the “Barley plant response rating” value in assay [2] is given as 10. Further, the “Plant response rating, Sunflower” value in assay [3] (250 g ai/ha, 0 to 100 scale) stood at 98; in assay [3] (setting [6]), 75; in assay [3] (setting [8]) it was 85. Further, the “Sunflower plant response rating” value in assay [3] (0 to 100 scale) worked out at 95. The “Plant response rating, Galium” value in assay [4] (250 g ai/ha, 0 to 100 scale) came out at 75; in assay [4] (setting [6]) it was 5; in assay [4] (setting [8]), 50. Moreover, the “Galium plant response rating” value in assay [4] (0 to 100 scale) is listed as 50. The “Plant response rating, Nightshade” value in assay [5] (250 g ai/ha, 0 to 100 scale) is 100; in assay [5] (setting [6]), 85; in assay [5] (setting [8]), 100. The “Nightshade plant response rating” value in assay [5] (0 to 100 scale) was determined as 100.
